“And” between values parts separate entries of the source, which are not always exact repeats. Equal entries are not always repeated.
Tested on: db/db mice
Assay: Pharmacodynamics study: blood glucose level-time profiles after single treatment
Assay type: in vivo
Conditions: SC 0.8 mg/kg
Text: For pharmacodynamics studies, db/db mice were randomly divided into 5 groups (n=3). The test article preparation and dosing procedure followed the same way as described in PK study above. The study protocol is described in Table 6.

CJC-1134 [CJC-1134-SC]
Blood Glucose AUC, Mean (db/db mice (n=3)): 364.1 mmol·h/L
Blood Glucose Level, Mean (db/db mice (n=3), 0 h after fasting): 15.2 mmol/L
Blood Glucose Level, Mean (db/db mice (n=3), 0.25 h): 22.4 mmol/L
Blood Glucose Level, Mean (db/db mice (n=3), 0.5 h): 19.6 mmol/L
Blood Glucose Level, Mean (db/db mice (n=3), 1 h): 14.6 mmol/L
Blood Glucose Level, Mean (db/db mice (n=3), 3 h): 13.5 mmol/L
Blood Glucose Level, Mean (db/db mice (n=3), 6 h): 16.3 mmol/L
Blood Glucose Level, Mean (db/db mice (n=3), 8 h): 13.0 mmol/L
Blood Glucose Level, Mean (db/db mice (n=3), 24 h): 17.4 mmol/L
Blood Glucose Level (db/db mice, 0 h after fasting, individual mice, 0.8 mg/kg): 8.7 mmol/L and 16.4 mmol/L and 20.6 mmol/L
Blood Glucose Level (db/db mice, 0.25 h, individual mice, 0.8 mg/kg): 20.5 mmol/L and 21.2 mmol/L and 25.6 mmol/L
Blood Glucose Level (db/db mice, 0.5 h, individual mice, 0.8 mg/kg): 18.8 mmol/L and 21.0 mmol/L and 19.0 mmol/L
Blood Glucose Level (db/db mice, 1 h, individual mice, 0.8 mg/kg): 11.5 mmol/L and 16.5 mmol/L and 15.9 mmol/L
Blood Glucose Level (db/db mice, 3 h, individual mice, 0.8 mg/kg): 10.4 mmol/L and 14.0 mmol/L and 16.1 mmol/L
Blood Glucose Level (db/db mice, 6 h, individual mice, 0.8 mg/kg): 12.7 mmol/L and 18.7 mmol/L and 17.5 mmol/L
Blood Glucose Level (db/db mice, 8 h, individual mice, 0.8 mg/kg): 11.3 mmol/L and 16.3 mmol/L and 11.4 mmol/L
Blood Glucose Level (db/db mice, 24 h, individual mice, 0.8 mg/kg): 17.0 mmol/L and 16.9 mmol/L and 18.4 mmol/L
Blood Glucose AUC (db/db mice, individual mice, 0.8 mg/kg): 323.1 mmol·h/L and 399.5 mmol·h/L and 369.8 mmol·h/L

Source: patent US20250205312A1, “Orally Available Albenatide” (AlbuNext, LLC, priority 2023, published 2025)
